Patent US20130005568A1, “SAFENED HERBICIDAL MIXTURES” (E.I. DU PONT DE NEMOURS AND COMPANY, priority 2011, published 2013)

Legend:
Assay in all cases: Test G: turf grass and weed postemergence plant response rating
[1] = system: Zoysia grass; assay type: in vivo, Zoysia japonica Steud.; details: Zoysia grass, postemergence, greenhouse, three weeks, 0-100 scale
Source text: (§1) For all of the following biological tests, plant response ratings were based on a 0-100 scale where zero is growth equivalent to that of untreated plants (no plant response) and 100 represents no additional growth occurring after herbicide treatment.
(§2) Plants of the turf grass species: zoysia (Zoysia japonica Steud.), bermudagrass (Cynodon dactylon (L.) Pers.), tall fescue (Festuca arundinacea Shreib.), creeping bentgrass (Agrostis stoonoifera L.), perennial ryegrass (Lolium perenne L.) and hard fescue (Festuca species) were grown under greenhouse conditions for four months. Plants were clipped as needed to plant heights of 5-10 cm. Weeds typically found in turf: annual bluegrass (Poa annua L.), common chickweed (Stellaria media (L.) Vill.), large crabgrass (Digitaria sanguinales (L.) Scop.), dandelion (Taraxacum officinale Weber in Wiggers), goosegrass (Eleusine indica (L.) Gaertn.), henbit (Lamium amplexicaule L.), venice mallow (Hibiscus trionium L.) and purple nutsedge (Cyperus rotundus L.) were also grown under greenhouse conditions so that plants were 5-20 cm tall when they were treated. Herbicide mixtures were formulated, dissolved/dispersed in water containing 0.25% non-ionic surfactant, and sprayed postemergence to these turf grasses and weeds. Treated plants were grown under greenhouse conditions for three weeks before visual evaluations of plant responses were recorded.

[2] = system: Bermudagrass; assay type: in vivo, Cynodon dactylon (L.) Pers.; details: Bermudagrass, postemergence, greenhouse, three weeks, 0-100 scale
Source text: as §1
Plants of the turf grass species: zoysia (Zoysia japonica Steud.), bermudagrass (Cynodon dactylon (L.) Pers.), tall fescue (Festuca arundinacea Shreib.), creeping bentgrass (Agrostis stoonoifera L.), perennial ryegrass (Lolium perenne L.) and hard fescue (Festuca species) were grown under greenhouse conditions for four months. Plants were clipped as needed to plant heights of 5-10 cm. […] Herbicide mixtures were formulated, dissolved/dispersed in water containing 0.25% non-ionic surfactant, and sprayed postemergence to these turf grasses and weeds. Treated plants were grown under greenhouse conditions for three weeks before visual evaluations of plant responses were recorded.

[3] = system: Tall fescue; assay type: in vivo, Festuca arundinacea Shreib.; details: Tall fescue, postemergence, greenhouse, three weeks, 0-100 scale
Source text: as §1, §2

[4] = system: Hard fescue; assay type: in vivo, Festuca species; details: Hard fescue, postemergence, greenhouse, three weeks, 0-100 scale
Source text: as §1, §2

[5] = system: Creeping bentgrass; assay type: in vivo, Agrostis stoonoifera L.; details: Creeping bentgrass, postemergence, greenhouse, three weeks, 0-100 scale
Source text: as §1, §2

[6] = system: Perennial ryegrass; assay type: in vivo, Lolium perenne L.; details: Perennial ryegrass, postemergence, greenhouse, three weeks, 0-100 scale
Source text: as §1, §2

[7] = system: Annual bluegrass; assay type: in vivo, Poa annua L.; details: Annual bluegrass, postemergence, greenhouse, three weeks, 0-100 scale
Source text: as §1, §2

[8] = system: Chickweed; assay type: in vivo, Stellaria media (L.) Vill.; details: Chickweed, postemergence, greenhouse, three weeks, 0-100 scale
Source text: as §1, §2

[9] = system: Large crabgrass; assay type: in vivo, Digitaria sanguinales (L.) Scop.; details: Large crabgrass, postemergence, greenhouse, three weeks, 0-100 scale
Source text: as §1, §2

[10] = system: Dandelion; assay type: in vivo, Taraxacum officinale Weber in Wiggers; details: Dandelion, postemergence, greenhouse, three weeks, 0-100 scale
Source text: as §1, §2

[11] = system: Goosegrass; assay type: in vivo, Eleusine indica (L.) Gaertn.; details: Goosegrass, postemergence, greenhouse, three weeks, 0-100 scale
Source text: as §1, §2

[12] = system: Henbit; assay type: in vivo, Lamium amplexicaule L.; details: Henbit, postemergence, greenhouse, three weeks, 0-100 scale
Source text: as §1, §2

[13] = system: Venice mallow; assay type: in vivo, Hibiscus trionium L.; details: Venice mallow, postemergence, greenhouse, three weeks, 0-100 scale
Source text: as §1, §2

[14] = system: Purple nutsedge; assay type: in vivo, Cyperus rotundus L.; details: Purple nutsedge, postemergence, greenhouse, three weeks, 0-100 scale
Source text: as §1, §2

[15] = herbicide 80 g ai/ha + Compound 1 125 g ai/ha

## COc1cc(OC)nc(NC(=O)NS(=O)(=O)c2ncccc2C(=O)N(C)C)n1 [Nicosulfuron, nicosulfuron]
[1]; [15]
  Observed Response, Herbicide mixture with Compound 1: 0
[1]; herbicide 80 g ai/ha
  Observed Response, Herbicide alone: 25
[2]; [15]
  Observed Response, Herbicide mixture with Compound 1: 0
[2]; herbicide 80 g ai/ha
  Observed Response, Herbicide alone: 0
[3]; [15]
  Observed Response, Herbicide mixture with Compound 1: 60
[3]; herbicide 80 g ai/ha
  Observed Response, Herbicide alone: 60
[4]; [15]
  Observed Response, Herbicide mixture with Compound 1: 30
[4]; herbicide 80 g ai/ha
  Observed Response, Herbicide alone: 60
[5]; [15]
  Observed Response, Herbicide mixture with Compound 1: 88
[5]; herbicide 80 g ai/ha
  Observed Response, Herbicide alone: 80
[6]; [15]
  Observed Response, Herbicide mixture with Compound 1: 50
[6]; herbicide 80 g ai/ha
  Observed Response, Herbicide alone: 80
[7]; [15]
  Observed Response, Herbicide mixture with Compound 1: 100
[7]; herbicide 80 g ai/ha
  Observed Response, Herbicide alone: 100
[8]; [15]
  Observed Response, Herbicide mixture with Compound 1: 100
[8]; herbicide 80 g ai/ha
  Observed Response, Herbicide alone: 100
[9]; [15]
  Observed Response, Herbicide mixture with Compound 1: 100
[9]; herbicide 80 g ai/ha
  Observed Response, Herbicide alone: 100
[10]; [15]
  Observed Response, Herbicide mixture with Compound 1: 100
[10]; herbicide 80 g ai/ha
  Observed Response, Herbicide alone: 100
[11]; [15]
  Observed Response, Herbicide mixture with Compound 1: 90
[11]; herbicide 80 g ai/ha
  Observed Response, Herbicide alone: 80
[12]; [15]
  Observed Response, Herbicide mixture with Compound 1: 100
[12]; herbicide 80 g ai/ha
  Observed Response, Herbicide alone: 100
[13]; [15]
  Observed Response, Herbicide mixture with Compound 1: 80
[13]; herbicide 80 g ai/ha
  Observed Response, Herbicide alone: 40
[14]; [15]
  Observed Response, Herbicide mixture with Compound 1: 80
[14]; herbicide 80 g ai/ha
  Observed Response, Herbicide alone: 80
